Source: patent publication US20140336220A1, “COMPOSITION FOR PREVENTING OR TREATING OBESITY COMPRISING REBAMIPIDE” (The Catholic University of Korea Industry-Academic …, priority 2011, published 2014)
Entries after “also recorded” stand apart in the source; their conditions may differ.

What was measured:
[1] = test system: animal models induced with obesity; experiment: Adipocyte in liver frozen sections, haematoxylin and eosin and Oil red O staining; assay type: in vivo, mouse; conditions: oral administration, 51 days, H&E and Oil red O staining, vs control induced with obesity, FIG. 2
Method: In order to check fat inhibition effect of rebamipide, after supply of a high fat diet for 51 days was ended, a food was stopped at 12 hours before an experiment period was ended. Then, a frozen section (7 μm) obtained from a liver was haematoxylin and eosin staining and Oil red O staining. As a result of staining including the haematoxylin and eosin staining and Oil red O staining, it could be seen that in the liver obtained after oral administration with rebamipide, adipocyte were reduced as compared with a control induced with obesity (refer to FIG. 2).

[2] = test system: animal models induced with obesity; experiment: Serum glucose, triglyceride and cholesterol by autoanalyzer; assay type: in vivo, mouse; conditions: oral administration, obese mice, FIG. 3
Method: Further, an experimental animal group was etherized and blood was collected from the heart. The collected blood was put into a centrifuge tube and centrifuged at 3000 rpm for 20 minutes, so that the serum was separated and kept in a freezer until it was analyzed at −70° C. Contents of glucose, triglyceride, total cholesterol, HDL-cholesterol, and LDL-cholesterol in the serum were analyzed using an autoanalyzer (Kuadro, Italy).

[3] = test system: Th17 cells; experiment: Th17 cell inhibition, flow cytometry of blood and spleen cells; assay type: cell-based, mouse; conditions: method: pre-treated at 1000 μM
Method: In order to stimulate CD4+ T cells 1×10 separated from the spleen under differentiation conditions of Th17 cells, the CD4+ T cells 1×10 were divided into a 24-well plate coated with 1 μg/Ml of an anti-CD3 antibody and treated with all of 1 μg/mL of an anti-CD28 antibody, 2 ng/ml of TGF-β, 20 ng/ml of IL-6, 10 ng/ml of anti-IL-4, and 10 ng/ml of anti-IFNr together suitable for stimulating Th17 cells. Then, the cells were stimulated for 1 hour. In this case, the cells were pre-treated with a rebamipide compound at a concentration of 1000 μM and cultured for 1 hour. The collected cells were allowed to react with a PerCP-anti-mouse CD4 antibody and a PE-anti-mouse phospho STATS antibody at 4° C. for 30 minutes in a dark field and washed with FACs buffer (0.002% sodium azide, 0.2% BSA/PBS). These cells were washed twice with Perm Wash buffer and re-floated on the FACs buffer and then analyzed with a flow cytometer.

[4] = test system: animal models induced with obesity; experiment: Serum cholesterol, LDL-cholesterol and triglyceride, dose comparison; assay type: in vivo, mouse; conditions: FIG. 7A
Method: An experimental animal group was etherized and blood was collected from the heart. The collected blood was put into a centrifuge tube and centrifuged at 8000 rpm for 8 minutes at 20° C., so that the serum was separated.

[5] = test system: animal group induced with obesity; experiment: Brown fat to white fat ratio, interscapular region; assay type: in vivo, mouse; conditions: 30 mg/kg and 100 mg/kg, vs animal group induced with obesity, FIG. 10
Method: Thus, in order to check an effect of treatment with rebamipide on white fat and brown fat in vivo, the inventors of the present disclosure separated fat from an interscapular region of an animal group induced with obesity and a group treated with rebamipide with a dose of 30 mg/kg and 100 mg/kg and divided into white fat and brown fat. A weight of each of the white fat and the brown fat was measured, and an amount of the brown fat with respect to the white fat was calculated.

[6] = test system: animal model with obesity induced arthritis; experiment: Immunohistochemistry staining of inflammatory cytokines in joint; assay type: in vivo, mouse; conditions: immunochemical staining, vs obesity induced arthritis group, FIG. 14
Method: In order to check whether or not rebamipide of the present disclosure specifically can inhibit inflammatory cytokines such as IL-17, IL-6, IL-1b, TNF-a, and Nitrothyrosine in the joint of an animal model with obesity induced arthritis, the joint of a mouse was treated by the same method as illustrated in Example <9-2>. Then, inflammatory cytokines were stained by with an immunochemical staining method and analyzed with an optical microscope.

[7] = test system: Th17 cells and Treg cells in spleen; experiment: Th17 and Treg cells in spleen of obesity induced arthritis model, confocal microscope; assay type: in vivo, mouse; conditions: FIG. 15
Method: Further, in order to investigate whether or not rebamipide affects Th17 and Treg, the inventors of the present disclosure embedded a frozen section (optimal cutting temperature compound: O.C.T. compound) using the spleen of a mouse and rapidly cooled the tissue in liquid nitrogen and attached the tissue on a slide to a thickness of 7 μm using a cryo microtome. Then, the section was fixed with acetone and coated with 10% normal goat serum and blocked from a non-specific reaction for 30 minutes. Thereafter, the section was reacted at 4° C. overnight with primary antibodies, that is, FITC-labeled anti-mFoxp3 Ab, PElabeled anti-mCD4 Ab, and APC-labeled anti-CD25 Ab, diluted with PBS (pH 7.5) at a ratio of 1:100 for Treg analysis and reacted with FITC-labeled anti-mCD4 Ab, and PE-labeled anti-mIL-17 for Th17 cell analysis. On the next day, the section was washed with a PBS solution, and a stained tissue was analyzed with a confocal microscope.

[8] = test system: STAT3; experiment: STAT3 inhibition in spleen of obesity induced arthritis model, confocal microscope; assay type: in vivo, mouse; conditions: FIG. 16
From the text: In order to investigate whether or not rebamipide can inhibit STAT3, the inventors of the present disclosure extracted the spleen from a mouse in each group, and embedded a frozen section (optimal cutting temperature compound: O.C.T. compound) using the extracted spleen and rapidly cooled the tissue in liquid nitrogen and attached the tissue on a slide to a thickness of 7 μm using a cryo microtome. Then, the section was fixed with acetone and coated with 10% normal goat serum and blocked from a non-specific reaction for 30 minutes. Thereafter, the section was reacted at 4° C. overnight with primary antibodies, that is, FITC-labeled anti-mFoxp3 Ab, FITC labeled anti-mCD4 Ab, PE-labeled anti-p-STAT3 s727 Ab, and PE-labeled anti-p-STAT3 y705 Ab, diluted with PBS (pH 7.5) at a ratio of 1:50 for analyzing STAT3. On the next day, the section was washed with a PBS solution, and a stained tissue was analyzed with a confocal microscope.

O=C(NC(Cc1cc(=O)[nH]c2ccccc12)C(=O)O)c1ccc(Cl)cc1 (stereo not shown) [rebamipide, 2-(4-chlorobenzoylamino)-3-[2(1H)-quinolinon-4-yl]propionic acid]
adipocyte in liver [1]: remarkably reduced
HDL-cholesterol in serum [2]: slightly increased; also recorded: not statistically significant but increased
LDL-cholesterol in serum [2]: statistically significantly reduced; also recorded: statistically significantly decreased
glucose in serum [2]: statistically significantly reduced; also recorded: statistically significantly decreased
total cholesterol in serum [2]: statistically significantly reduced; also recorded: statistically significantly decreased
triglyceride in serum [2]: statistically significantly reduced; also recorded: statistically significantly decreased
Th17 cells in blood ([3]; FIG. 4A): significantly reduced
Th17 cells in spleen ([3]; FIG. 4B): significantly reduced
LDL-cholesterol in serum ([4]; 30 mg/kg and 100 mg/kg oral): statistically significantly reduced
cholesterol in serum ([4]; 30 mg/kg and 100 mg/kg oral): statistically significantly reduced
triglyceride in serum ([4]; 30 mg/kg and 100 mg/kg oral): statistically significantly reduced
reduction effect on serum cholesterol, LDL-cholesterol and triglyceride ([4]; 100 mg/kg oral, compared between doses): generally highest
ratio of the brown fat to the white fat [5]: increased
infiltration of IL-1b in joint [6]: inhibited
infiltration of IL-6 in joint [6]: inhibited
infiltration of IL-17 in joint [6]: inhibited
infiltration of Nitrothyrosine in joint [6]: inhibited
infiltration of TNF-a in joint [6]: inhibited
Treg cells in spleen [7]: increased
expression of Th17 in spleen [7]: reduced
p-STAT3 s705 in spleen [8]: decreased
p-STAT3 s727 in spleen [8]: decreased
